pEC50: −log10 of the molar value. *1 amine or outer side, *2 acyl side, *3 side chain or, on linkers, in order; H or OH if unused. Where a SMILES comes first, the peptide text is derived from it. Side-chain parts run from the residue outwards. [ ]: non-standard residue; d: D form. The star is where a group is joined. C18 diacid = O=C(O)CCCCCCCCCCCCCCCCC(=O)*; C16 diacid = O=C(O)CCCCCCCCCCCCCCC(=O)*; γGlu = O=C(O)[C@H](CCC(=O)[*:2])N[*:1]; NMeI = CC[C@H](C)[C@H](NC)C(=O)O; Api = NC1(C(=O)O)CCNCC1; AEEA = NCCOCCOCC(=O)O; Aib = CC(C)(N)C(=O)O
How the values were obtained:
human CRF2a receptor = biological target: T1, human CRF2a receptor (Homo sapiens, UniProt Q13324); assay: Activity at human CRF2a receptor, cAMP functional assay in TeloHEAC cells; assay type: cell-based; conditions: TeloHEAC cells stably expressing human CRF2a receptor, relative to urocortin 2 (100 nM = 100%)
T1 construct: expressed in transfected cells; host or cells: TeloHEAC cells
T1 sequence (Q13324 1-411): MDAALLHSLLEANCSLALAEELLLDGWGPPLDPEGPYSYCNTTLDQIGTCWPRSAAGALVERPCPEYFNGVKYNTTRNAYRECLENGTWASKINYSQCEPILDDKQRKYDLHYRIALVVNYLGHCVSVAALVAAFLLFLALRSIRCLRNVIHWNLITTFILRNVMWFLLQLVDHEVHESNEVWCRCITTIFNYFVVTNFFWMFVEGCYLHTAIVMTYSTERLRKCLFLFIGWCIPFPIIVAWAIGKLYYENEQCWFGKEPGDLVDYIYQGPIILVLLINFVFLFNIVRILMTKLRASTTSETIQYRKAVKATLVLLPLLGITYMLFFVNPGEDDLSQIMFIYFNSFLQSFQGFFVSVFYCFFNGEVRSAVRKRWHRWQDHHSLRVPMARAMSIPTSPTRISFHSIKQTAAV
Outline: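 cAMP accumulation was measured by HTRF 665/620 nm ratio after 30 min at 37° C compound exposure (16 twofold dilutions) of CRF2a-expressing TeloHEAC cells, 10000/well, in HEPES-buffered HBSS plus IBMX. Activity was normalised to urocortin 2 at 100 nM (100%), and EC50 was the concentration giving half-maximal activation.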

CFR1R receptor = biological target: T2, CFR1R receptor (Homo sapiens, UniProt P34998); assay: Activity at anti-target CFR1R receptor, cAMP assay in CRF1R-overexpression CHO-K1 cells; assay type: cell-based; conditions: 100% = Sauvagine at 100 nM; for pEC50: cAMP
T2 construct: host or cells: CHO-K1 (clone 2)
T2 sequence (P34998 24-415): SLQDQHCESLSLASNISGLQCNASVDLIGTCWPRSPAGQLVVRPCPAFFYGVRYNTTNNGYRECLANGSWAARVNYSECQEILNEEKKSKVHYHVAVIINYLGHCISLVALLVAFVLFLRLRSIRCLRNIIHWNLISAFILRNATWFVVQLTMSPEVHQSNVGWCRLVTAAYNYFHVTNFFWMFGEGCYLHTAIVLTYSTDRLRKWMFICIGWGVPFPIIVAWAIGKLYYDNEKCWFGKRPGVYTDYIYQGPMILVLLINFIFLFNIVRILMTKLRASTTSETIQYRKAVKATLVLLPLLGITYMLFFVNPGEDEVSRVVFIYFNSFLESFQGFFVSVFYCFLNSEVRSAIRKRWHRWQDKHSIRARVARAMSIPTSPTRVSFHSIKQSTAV
Outline: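 Run as for the TeloHAEC line, except the full-activation control well received Sauvagine (100 nM) and final density was 4000 cells/well. Cells from clone 2 came from frozen aliquots of near-confluent cultures.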

CC[C@H](C)[C@H](NC(C)=O)C(=O)N[C@H](C(=O)N[C@@H](CC(C)C)C(=O)N[C@@H](CO)C(=O)N[C@@H](CC(C)C)C(=O)N[C@@H](CC(=O)O)C(=O)N[C@@H](C(=O)N1CCC[C@H]1C(=O)N[C@H](C(=O)N[C@@H](CCCCN)C(=O)N[C@@H](CC(C)C)C(=O)N[C@@H](CCCCNC(=O)COCCOCCNC(=O)COCCOCCNC(=O)CC[C@H](NC(=O)CCCCCCCCCCCCCCCCC(=O)O)C(=O)O)C(=O)N[C@@H](CCCCN)C(=O)N[C@H](C(=O)N[C@@H](CC(C)C)C(=O)N[C@@H](CC(C)C)C(=O)N[C@@H](CCC(=O)O)C(=O)N[C@@H](CCC(N)=O)C(=O)N[C@@H](CCC(=O)O)C(=O)N[C@@H](CCCCN)C(=O)N[C@@H](CCC(N)=O)C(=O)N[C@@H](CCCCN)C(=O)N[C@@H](CCCCN)C(=O)N[C@@H](CCC(N)=O)C(=O)N[C@@H](CCCNC(=N)N)C(=O)N[C@@H](CCC(=O)O)C(=O)N[C@@H](CCC(N)=O)C(=O)N[C@@H](C)C(=O)N[C@@H](CCC(=O)O)C(=O)N[C@H](C(=O)N[C@@H](CC(N)=O)C(=O)N[C@H](C(=O)N[C@@H](CCC(N)=O)C(=O)N[C@H](C(=O)N[C@@H](CC(C)C)C(=O)N[C@@H](C)C(=O)N[C@@H](CCC(N)=O)C(=O)N[C@H](C(N)=O)C(C)C)[C@@H](C)CC)C(C)C)[C@@H](C)O)[C@@H](C)CC)[C@@H](C)CC)C(C)C)C(C)C [compound 103] (Ac-IVLSLD[dV]PIKLK([AEEA-AEEA-γGlu-C18 diacid])KILLEQEKQKKQREQAETNVQILAQV-NH2)
pEC50 (human CRF2a receptor): 8.51
Emax (% I) (CFR1R receptor): 3 % I
pEC50 (CFR1R receptor): < 6.60

CC[C@H](C)[C@H](NC(C)=O)C(=O)N[C@H](C(=O)N[C@@H](CC(C)C)C(=O)N[C@@H](CO)C(=O)N[C@@H](CC(C)C)C(=O)N[C@@H](CC(=O)O)C(=O)N[C@@H](C(=O)N1CCC[C@H]1C(=O)N[C@H](C(=O)N[C@@H](CCCCN)C(=O)N[C@@H](CC(C)C)C(=O)N[C@@H](CCCCNC(=O)COCCOCCNC(=O)COCCOCCNC(=O)CC[C@H](NC(=O)CCCCCCCCCCCCCCCCC(=O)O)C(=O)O)C(=O)N[C@@H](CCCCN)C(=O)N[C@H](C(=O)N[C@@H](CC(C)C)C(=O)N[C@@H](CC(C)C)C(=O)N[C@@H](CCC(=O)O)C(=O)N[C@@H](CCC(N)=O)C(=O)N[C@@H](CCC(=O)O)C(=O)N[C@@H](CCCCN)C(=O)N[C@@H](CCC(N)=O)C(=O)N[C@@H](CCCCN)C(=O)NC(C)(C)C(=O)N[C@@H](CCC(N)=O)C(=O)N[C@@H](CCCNC(=N)N)C(=O)N[C@@H](CCC(=O)O)C(=O)N[C@@H](CCC(N)=O)C(=O)N[C@@H](C)C(=O)N[C@@H](CCC(=O)O)C(=O)N[C@H](C(=O)N[C@@H](CC(N)=O)C(=O)NC(C)(C)C(=O)N[C@@H](CCC(N)=O)C(=O)N[C@H](C(=O)N[C@@H](CC(C)C)C(=O)N[C@@H](C)C(=O)N[C@@H](CCC(N)=O)C(=O)N[C@H](C(N)=O)C(C)C)[C@@H](C)CC)[C@@H](C)O)[C@@H](C)CC)[C@@H](C)CC)C(C)C)C(C)C [compound 197] (Ac-IVLSLD[dV]PIKLK([AEEA-AEEA-γGlu-C18 diacid])KILLEQEKQK[Aib]QREQAETN[Aib]QILAQV-NH2)
pEC50 (human CRF2a receptor): 8.89
Emax (% I) (CFR1R receptor): 5 % I
pEC50 (CFR1R receptor): < 6.60

CC[C@H](C)[C@H](NC(C)=O)C(=O)N[C@H](C(=O)N[C@@H](CC(C)C)C(=O)N[C@@H](CO)C(=O)N[C@@H](CC(C)C)C(=O)N[C@@H](CC(=O)O)C(=O)N[C@@H](C(=O)N1CCC[C@H]1C(=O)N[C@H](C(=O)N[C@@H](CCCCN)C(=O)N[C@@H](CC(C)C)C(=O)N[C@@H](CCCCNC(=O)COCCOCCNC(=O)COCCOCCNC(=O)CC[C@H](NC(=O)CCCCCCCCCCCCCCC(=O)O)C(=O)O)C(=O)N[C@@H](CCCCN)C(=O)N[C@H](C(=O)N[C@@H](CC(C)C)C(=O)N[C@@H](CC(C)C)C(=O)N[C@@H](CCC(=O)O)C(=O)N[C@@H](CCC(N)=O)C(=O)N[C@@H](CCC(=O)O)C(=O)N[C@@H](CCCCN)C(=O)N[C@@H](CCC(N)=O)C(=O)N[C@@H](CCCCN)C(=O)N[C@@H](CCCCN)C(=O)N[C@@H](CCC(N)=O)C(=O)N[C@@H](CCCNC(=N)N)C(=O)N[C@@H](CCC(=O)O)C(=O)N[C@@H](CCC(N)=O)C(=O)N[C@@H](C)C(=O)N[C@@H](CCC(=O)O)C(=O)N[C@H](C(=O)N[C@@H](CC(N)=O)C(=O)NC(C)(C)C(=O)N[C@@H](CCC(N)=O)C(=O)N[C@H](C(=O)N[C@@H](CC(C)C)C(=O)N[C@@H](C)C(=O)N[C@@H](CCC(N)=O)C(=O)N[C@H](C(N)=O)C(C)C)[C@@H](C)CC)[C@@H](C)O)[C@@H](C)CC)[C@@H](C)CC)C(C)C)C(C)C [compound 42] (Ac-IVLSLD[dV]PIKLK([AEEA-AEEA-γGlu-C16 diacid])KILLEQEKQKKQREQAETN[Aib]QILAQV-NH2)
pEC50 (human CRF2a receptor): 8.51
Emax (% I) (CFR1R receptor): 1 % I
pEC50 (CFR1R receptor): < 6.60

CC[C@H](C)[C@H](NC)C(=O)N[C@H](C(=O)N[C@@H](CC(C)C)C(=O)N[C@@H](CO)C(=O)N[C@@H](CC(C)C)C(=O)N[C@@H](CC(=O)O)C(=O)N[C@@H](C(=O)N1CCC[C@H]1C(=O)N[C@H](C(=O)N[C@@H](CCCCN)C(=O)N[C@@H](CC(C)C)C(=O)N[C@@H](CCCCNC(=O)COCCOCCNC(=O)COCCOCCNC(=O)CC[C@H](NC(=O)CCCCCCCCCCCCCCCCC(=O)O)C(=O)O)C(=O)N[C@@H](CCCCN)C(=O)N[C@H](C(=O)N[C@@H](CC(C)C)C(=O)N[C@@H](CC(C)C)C(=O)N[C@@H](CCC(=O)O)C(=O)N[C@@H](CCC(N)=O)C(=O)N[C@@H](CCC(=O)O)C(=O)N[C@@H](CCCCN)C(=O)N[C@@H](CCC(N)=O)C(=O)N[C@@H](CCCCN)C(=O)N[C@@H](CCCCN)C(=O)N[C@@H](CCC(N)=O)C(=O)N[C@@H](CCCNC(=N)N)C(=O)N[C@@H](CCC(=O)O)C(=O)N[C@@H](CCC(N)=O)C(=O)N[C@@H](C)C(=O)N[C@@H](CCC(=O)O)C(=O)N[C@H](C(=O)N[C@@H](CC(N)=O)C(=O)NC1(C(=O)N[C@@H](CCC(N)=O)C(=O)N[C@H](C(=O)N[C@@H](CC(C)C)C(=O)N[C@@H](C)C(=O)N[C@@H](CCC(N)=O)C(=O)N[C@H](C(N)=O)C(C)C)[C@@H](C)CC)CCNCC1)[C@@H](C)O)[C@@H](C)CC)[C@@H](C)CC)C(C)C)C(C)C [compound 117] (H-[NMeI]VLSLD[dV]PIKLK([AEEA-AEEA-γGlu-C18 diacid])KILLEQEKQKKQREQAETN[Api]QILAQV-NH2)
pEC50 (human CRF2a receptor): 9.20
Emax (% I) (CFR1R receptor): 3 % I
pEC50 (CFR1R receptor): < 6.60
